Results on 1 compound are retold here after BindingDB's records for doi:10.7270/Q22J698B (NMMLSC, 2010).

In the test the target is Cell division control protein 42 homolog (Homo sapiens, UniProt P60953). Briefly: inhibition of fluorescent GTP binding to constitutively active Cdc42 – biochemical, multiplex bead flow cytometry, Bodipy-FL-GTP, dose response (AID 1333).
Sequence of Cell division control protein 42 homolog (P60953 whole entry): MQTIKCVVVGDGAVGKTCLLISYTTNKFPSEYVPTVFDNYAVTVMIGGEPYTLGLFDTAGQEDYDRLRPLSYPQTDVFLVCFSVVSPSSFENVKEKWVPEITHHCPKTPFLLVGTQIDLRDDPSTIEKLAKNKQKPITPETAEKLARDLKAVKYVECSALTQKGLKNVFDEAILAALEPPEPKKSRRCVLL

In general, EC50 refers to the concentration that produces a half-maximal response. As to `CC1(C)Cc2c(sc(NC(=S)NC(=O)c3ccccc3)c2C(=O)O)CO1` [2-(benzoylcarbamothioylamino)-5,5-dimethyl-4,7-dihydrothieno[2,3-c]pyran-3-carboxylic acid], the concentration for a half-maximal effect (EC50) amounted to 92 nM.
